Laboratory results published in patent US8729097B2, “Quinoline compounds as inhibitors of angiogenesis, human methionine aminopeptidase, and SIRT1, and methods of treating disorders” (The Johns Hopkins University, priority 2008, dated 2014).
Several values for one entry are separate records, joined by “and”; a condition that tells them apart may be missing. Identical values can stand only once.

Columns and labels:
[1] = test system: breast cancer cells as well as human umbilical vein endothelial cells (HUVECs); experiment: Cell proliferation assay, breast cancer cells and HUVECs; assay type: cell-based; conditions: Homo sapiens, HUVEC, read-out: IC50 of proliferation, all the cell types
Description: Cell proliferation assay was performed using several different kinds of breast cancer cells as well as human umbilical vein endothelial cells (HUVECs). […].
HCC1954 cells were grown in RPMI1640 containing 10% FBS. HUVEC were grown using the EGM-2 bullet kit (Cambrex) as per manufacturer's instructions. The cells were maintained in a humidified incubator adjusted to 5% CO2. For drug screening, 10 mM stock solutions of Johns Hopkins Drug Library were arrayed in 96-well plates and screened at a final concentration of 10 μM. The cell growth was determined using a [^3H]-thymidine incorporation assay. Cells (typically 5,000 cells/well) were seeded in 96-well plates containing 0.2 ml of growth media and allowed to adhere for 24 h. The cells were then treated with drugs for 24 h. Cells were pulsed with 1 μCi [^3H]-thymidine (MP Biomedicals, 6.7 Ci mmol^−1) for 8 h and harvested, upon trypsin treatment, onto glass fiber filters (Wallac, Turku, Finland), from which ^3H counts were determined using a Perkin Elmer MicroBeta plate reader.

[2] = test system: Saccharomyces cerevisiae strain BY4743; experiment: Yeast growth assay (wild type, map1Δ, map2Δ); assay type: cell-based; conditions: drug on paper disc
Text: Saccharomyces cerevisiae strain BY4743 (MATa/α his3Δ1/his3Δ1 leu2Δ0/leu2Δ0 lys2Δ0/LYS2) and its isogenic haploid derivatives for MetAP1 (map1Δ) and MetAP2 (map2Δ) deletion mutants were used for yeast growth assays. Drugs dissolved in DMSO were spotted onto sterile filter disks and dried before experiments. Exponentially growing yeast strains were mixed with top agar and plated on YPD (1% yeast extract/2% peptone/2% glucose) plates. The filter disks were then placed on the YPD plates containing yeasts and the incubation was continued for 48 h at 30° C.

p53 and p21 mRNA = experiment: RT-PCR of p53 and p21 mRNA in HUVEC; assay type: cell-based, human; conditions: time-dependent
Description: Total RNA from cells was isolated by Trizol reagent (Invitrogen) according to manufacturer's instruction. The RNA was then reverse transcribed using Superscript III (Invitrogen) and the standard PCR procedure was conducted using specific primer sets for p53 and p21 as following; 5′-[…]-3′ (forward) and 5′-[…]-3′ (reverse) for p53, 5′-[…]-3′ (forward) and 5′-[…]-3′ (reverse) for p21. RT-PCR analysis of GAPDH was used as an internal control for normalization.

[3] = test system: HCC1954 human breast cancer cells; experiment: Breast cancer xenografts; assay type: in vivo, mice
Description: Approximately two million of HCC1954 cells were injected bilaterally and subcutaneously into female athymic nude mice (NCR nu/nu, n=5/group). After tumors became palpable, control mice were treated with vehicle (peanut oil with 5% DMSO). […] The tumor volume was measured using a vernier caliper and calculated according to the modified ellipsoid formula: Tumor volume (mm^3)=(short axis)^2×(long axis)×π/6
After 30 days of treatment, the mice were sacrificed and the tumor tissues were extracted for immunohistochemical analysis and Western blots.

SirT1 = molecular target: T1, SirT1 (Homo sapiens, UniProt Q96EB6); experiment: biochemical; conditions: SirT1 IC50, recombinant human sirtuin, fluorogenic substrate
T1 sequence (Q96EB6 1-747): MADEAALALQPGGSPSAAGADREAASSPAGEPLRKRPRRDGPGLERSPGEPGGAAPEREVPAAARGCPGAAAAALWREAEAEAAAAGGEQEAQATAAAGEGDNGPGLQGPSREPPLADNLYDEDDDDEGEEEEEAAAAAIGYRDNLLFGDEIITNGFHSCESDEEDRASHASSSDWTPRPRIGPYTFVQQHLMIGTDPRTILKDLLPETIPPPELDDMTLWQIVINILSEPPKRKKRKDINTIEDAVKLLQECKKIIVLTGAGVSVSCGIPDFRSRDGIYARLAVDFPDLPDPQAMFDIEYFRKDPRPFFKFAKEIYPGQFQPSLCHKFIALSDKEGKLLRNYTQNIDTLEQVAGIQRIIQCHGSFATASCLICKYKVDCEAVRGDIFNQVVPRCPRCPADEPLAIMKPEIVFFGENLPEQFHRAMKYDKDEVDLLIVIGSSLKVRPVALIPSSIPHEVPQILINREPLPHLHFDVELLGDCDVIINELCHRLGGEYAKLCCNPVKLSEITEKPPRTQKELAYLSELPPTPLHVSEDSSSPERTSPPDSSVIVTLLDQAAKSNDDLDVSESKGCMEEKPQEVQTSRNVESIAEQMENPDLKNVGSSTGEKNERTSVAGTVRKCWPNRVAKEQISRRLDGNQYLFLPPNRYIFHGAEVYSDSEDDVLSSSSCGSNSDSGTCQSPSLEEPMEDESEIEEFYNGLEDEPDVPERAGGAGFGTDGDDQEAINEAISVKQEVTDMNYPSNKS
Description: The sirtuin fluorometric assay kits were obtained from Biomol. The assay was conducted according to the manufacturer's instruction. One unit of SirT1 was used per reaction. For SirT2 and SirT3, 2 units were used for the assay.

With `O=[N+]([O-])c1ccc(O)c2ncccc12` [Entry 1c, nitroxoline] the IC50 [1] was 2 to 5 µM, the “growth of MetAP-1 deletion mutant (map1Δ)” value ([2]; map1Δ) was “significantly inhibited” and the “growth of MetAP-2 deletion mutant” value ([2]; map2Δ) was “did not affect the growth”. For the same compound, the “growth of wild-type yeast” value ([2]; wild type) was “did not inhibit the yeast growth”, the “p21 mRNA level” value (p53 and p21 mRNA) was “increased” and the “p53 mRNA level” value (p53 and p21 mRNA) was “decreased”. The “level of p53 protein in tumor tissues” value ([3]; Western blot of tumor tissues) was “increased”, the “p53 acetylation in tumor tissues” value ([3]; Western blot of tumor tissues) was “significantly induced p53 acetylation” and the tumor-associated angiogenesis ([3]; anti-CD31 immunohistochemical staining) was “strongly inhibited”. For the same compound, the “inhibition of growth of HCC1954 xenografts” value ([3]; day 30, 60 mg/kg i.p., nude mice) was 55% and the IC50 (SirT1) was 8 µM and 8.5 µM.
